Several values for one entry are separate records, joined by “and”; a condition that tells them apart may be missing. Identical values can stand only once.
Tested on: platelets
Test: Clinical trial, metastatic pancreatic cancer: platelet count / thrombocytopenia grade
Assay type: in vivo, human
Parameters: Platelet count at start of cycle, Cycle 1: unit not given here; Platelet count at start of cycle, Cycle 4 / Platelet count: unit: ×10^3/μl blood
Conditions: for Platelet count: open-label randomized trial, per arm
Text: Male and non-pregnant, non-lactating, female patients, aged 18 to 75, with histologically confirmed metastatic adenocarcinoma of the pancreas were enrolled in the trial. […] Treatment consisted of a series of 28-day cycles, wherein the last day of one cycle (e.g., day 28, cycle 1) was immediately followed by the first day of the next cycle (e.g., day 1, cycle 2). […] Nab-paclitaxel and gemcitabine therapy was given as described in the prescribing information for Abraxane® and Gemzar®. See also, Von Hoff et al., 2011, J. […] As a substantially non-anticoagulant heparinoid, ODSH can be administered at a dose that is greater than the fully anticoagulant dose of unfractionated heparin, without concern for anticoagulant effect, as shown in the Results below. An initial run-in period was conducted in which ten patients were treated with the gemcitabine, nab-paclitaxel, and ODSH regimen described above. After all ten patients had completed at least one 28-day cycle, the data were reviewed and an open-label randomized study initiated, with two arms (ODSH arm and Control arm). In the ODSH arm, the dosing regimen was the same as in the run-in period (gemcitabine, nab-paclitaxel, and ODSH). In the Control arm, patients were given the same gemcitabine and nab-paclitaxel regimen as in the run-in period, but without ODSH. […] Platelet counts, total white blood cell counts, and absolute neutrophil counts were performed. Grading of thrombocytopenia and/or neutropenia was performed according to the following standards: [table]

[1] = ODSH 4 mg/kg bolus + 0.375 mg/kg/hr 48 h, adjunct to gemcitabine/nab-paclitaxel
[2] = ODSH adjunct to gemcitabine/nab-paclitaxel
[3] = ODSH adjunctive to gemcitabine and nab-paclitaxel, blood drawn before treatment that day, individual patients
[4] = all samples (FIG. 10A), ODSH adjunct to gemcitabine/nab-paclitaxel
[5] = day 15, first cycle, ODSH adjunct to gemcitabine/nab-paclitaxel

## substantially 2-O, 3-O desulfated heparin [ODSH]
[1]
  Patients with platelet count at beginning of fourth cycle greater than at beginning of first cycle: 9 out of 10
  Patients with platelet count at beginning of third cycle greater than at beginning of first cycle: Eight out of 9
ODSH 4 mg/kg bolus + 0.375 mg/kg/hr 48 h, days 1, 8, 15 of 28-day cycles, adjunct to gemcitabine/nab-paclitaxel
  Patients with platelet count at beginning of second cycle greater than at beginning of first cycle: Ten out of 10 and 10/10
[2]
  Patients exhibiting thrombocytopenia at the start of the second cycle: None
  Patients exhibiting thrombocytopenia at the start of the third cycle: one of 8
  Patients with platelet counts higher at the beginning of cycle 3 than at the beginning of cycle 2: 6/9
ODSH adjunctive to gemcitabine and nab-paclitaxel, blood drawn before treatment administration (before any chemotherapy), individual patients
  Platelet Count, Cycle 1 Day 1: 313 ×10^3/μl blood and 264 ×10^3/μl blood and 191 ×10^3/μl blood and 274 ×10^3/μl blood and 276 ×10^3/μl blood and 120 ×10^3/μl blood and 271 ×10^3/μl blood and 342 ×10^3/μl blood and 429 ×10^3/μl blood and 180 ×10^3/μl blood
[3]
  Platelet Count, Cycle 1 Day 8: 205 ×10^3/μl blood and 167 ×10^3/μl blood and 108 ×10^3/μl blood and 150 ×10^3/μl blood and 239 ×10^3/μl blood and 86 ×10^3/μl blood (2×) and 230 ×10^3/μl blood and 206 ×10^3/μl blood and 214 ×10^3/μl blood
  Platelet Count, Cycle 1 Day 15: 135 ×10^3/μl blood and 178 ×10^3/μl blood and 108 ×10^3/μl blood and 75 ×10^3/μl blood and 220 ×10^3/μl blood and 76 ×10^3/μl blood and 181 ×10^3/μl blood and 134 ×10^3/μl blood and 260 ×10^3/μl blood and 63 ×10^3/μl blood
  Platelet Count, Cycle 2 Day 1: 419 ×10^3/μl blood and 322 ×10^3/μl blood and 312 ×10^3/μl blood and 574 ×10^3/μl blood and 445 ×10^3/μl blood and 175 ×10^3/μl blood and 417 ×10^3/μl blood and 614 ×10^3/μl blood and 532 ×10^3/μl blood and 274 ×10^3/μl blood
  Platelet Count, Cycle 2 Day 8: 434 ×10^3/μl blood and 336 ×10^3/μl blood and 241 ×10^3/μl blood and 424 ×10^3/μl blood and 05 ×10^3/μl blood and 83 ×10^3/μl blood and 402 ×10^3/μl blood and 375 ×10^3/μl blood and 257 ×10^3/μl blood and 95 ×10^3/μl blood
  Platelet Count, Cycle 2 Day 15: 209 ×10^3/μl blood and 207 ×10^3/μl blood and 132 ×10^3/μl blood and 167 ×10^3/μl blood and 186 ×10^3/μl blood (2×) and 70 ×10^3/μl blood and 178 ×10^3/μl blood and 170 ×10^3/μl blood and 54 ×10^3/μl blood
  Platelet Count, Cycle 3 Day 1: 510 ×10^3/μl blood and 327 ×10^3/μl blood and 362 ×10^3/μl blood and 655 ×10^3/μl blood and 418 ×10^3/μl blood and 123 ×10^3/μl blood and 487 ×10^3/μl blood and 628 ×10^3/μl blood and 387 ×10^3/μl blood and −361 ×10^3/μl blood
  Platelet Count, Cycle 3 Day 8: 435 ×10^3/μl blood and 325 ×10^3/μl blood and 362 ×10^3/μl blood (2×) and 388 ×10^3/μl blood and 223 ×10^3/μl blood and 119 ×10^3/μl blood and 355 ×10^3/μl blood and 371 ×10^3/μl blood and 179 ×10^3/μl blood
  Platelet Count, Cycle 3 Day 15: 207 ×10^3/μl blood and 170 ×10^3/μl blood and 163 ×10^3/μl blood and 188 ×10^3/μl blood and 171 ×10^3/μl blood (2×) and 63 ×10^3/μl blood and 172 ×10^3/μl blood and 189 ×10^3/μl blood and 71 ×10^3/μl blood
  Platelet Count, Cycle 4 Day 1: 586 ×10^3/μl blood and 402 ×10^3/μl blood and 292 ×10^3/μl blood and 478 ×10^3/μl blood and 667 ×10^3/μl blood and 184 ×10^3/μl blood and 406 ×10^3/μl blood and 626 ×10^3/μl blood and 382 ×10^3/μl blood and 387 ×10^3/μl blood
  Platelet Count, Cycle 4 Day 8: 464 ×10^3/μl blood and 339 ×10^3/μl blood and 355 ×10^3/μl blood and 468 ×10^3/μl blood and 193 ×10^3/μl blood and 188 ×10^3/μl blood and 507 ×10^3/μl blood and 448 ×10^3/μl blood and 185 ×10^3/μl blood
  Platelet Count, Cycle 4 Day 15: 203 ×10^3/μl blood and 170 ×10^3/μl blood and 140 ×10^3/μl blood and 163 ×10^3/μl blood and 149 ×10^3/μl blood and 129 ×10^3/μl blood and 339 ×10^3/μl blood and 169 ×10^3/μl blood and 202 ×10^3/μl blood and 78 ×10^3/μl blood
  Platelet Count, Cycle 5 Day 1: 499 ×10^3/μl blood and 351 ×10^3/μl blood and 266 ×10^3/μl blood and 389 ×10^3/μl blood and 275 ×10^3/μl blood and 106 ×10^3/μl blood and 512 ×10^3/μl blood and 607 ×10^3/μl blood and 427 ×10^3/μl blood and −288 ×10^3/μl blood
  Platelet Count, Cycle 5 Day 8: 231 ×10^3/μl blood and 288 ×10^3/μl blood and 241 ×10^3/μl blood and 325 ×10^3/μl blood and 192 ×10^3/μl blood and 94 ×10^3/μl blood and 378 ×10^3/μl blood and 377 ×10^3/μl blood and 403 ×10^3/μl blood and 188 ×10^3/μl blood
  Platelet Count, Cycle 5 Day 15: 132 ×10^3/μl blood and 169 ×10^3/μl blood and 153 ×10^3/μl blood and 109 ×10^3/μl blood and 58 ×10^3/μl blood and 193 ×10^3/μl blood and 194 ×10^3/μl blood and 72 ×10^3/μl blood
  Platelet Count, Cycle 6 Day 1: 288 ×10^3/μl blood and 370 ×10^3/μl blood and 294 ×10^3/μl blood and 489 ×10^3/μl blood and 114 ×10^3/μl blood and 371 ×10^3/μl blood and 503 ×10^3/μl blood and 275 ×10^3/μl blood
  Platelet Count, Cycle 6 Day 8: 384 ×10^3/μl blood and 321 ×10^3/μl blood and 207 ×10^3/μl blood and 336 ×10^3/μl blood and 85 ×10^3/μl blood and 313 ×10^3/μl blood and 493 ×10^3/μl blood and 148 ×10^3/μl blood
  Platelet Count, Cycle 6 Day 15: 169 ×10^3/μl blood and 162 ×10^3/μl blood and 128 ×10^3/μl blood and 102 ×10^3/μl blood and 54 ×10^3/μl blood and 338 ×10^3/μl blood and 164 ×10^3/μl blood and 72 ×10^3/μl blood
[4]
  Mean and median platelet counts at day 15 of treatment cycles 2 and 3: remained in the normal range
  Mean and median platelet counts on the first day of treatment cycles 2 and 3: above 150,000
Day 1 of cycle 1, before any chemotherapy, ODSH adjunctive to gemcitabine and nab-paclitaxel, individual patients
  Platelet count at start of cycle, Cycle 1: 264 and 191 and 274 and 276 and 120 and 271 and 342 and 429 and 180 and 313
Day 1 of cycle 2, ODSH adjunctive to gemcitabine and nab-paclitaxel, individual patients
  Platelet count at start of cycle, Cycle 2: 322 and 312 and 574 and 445 and 175 and 417 and 614 and 537 and 274 and 419
Day 1 of cycle 3, ODSH adjunctive to gemcitabine and nab-paclitaxel, individual patients
  Platelet count at start of cycle, Cycle 3: 327 and 362 and 655 and 418 and 123 and 628 and 387 and 361 and 510
Day 1 of cycle 4, ODSH adjunctive to gemcitabine and nab-paclitaxel, individual patients
  Platelet count at start of cycle, Cycle 4: 402 and 292 and 478 and 667 and 184 and 406 and 626 and 382 and 387 and 586
Day 1 of cycle 5, ODSH adjunctive to gemcitabine and nab-paclitaxel, individual patients
  Platelet count at start of cycle, Cycle 5: 351 and 389 and 275 and 512 and 427 and 288 and 499
Day 1 of cycle 6, ODSH adjunctive to gemcitabine and nab-paclitaxel, individual patients
  Platelet count at start of cycle, Cycle 6: 489 and 371 and 503 and 275 and 288
Day 1 of cycle 7, ODSH adjunctive to gemcitabine and nab-paclitaxel, individual patients
  Platelet count at start of cycle, Cycle 7: 454
[5]
  Patients with no more than mild thrombocytopenia after two doses of treatment: 90%
  Patients with no thrombocytopenia after two doses of treatment: 40%
Day 15 of cycle 2, ODSH adjunct to gemcitabine/nab-paclitaxel
  Patients with no thrombocytopenia after five doses of treatment: 7 out of 10
Mild (Grade 1), after three or six doses of gemcitabine and nab-paclitaxel with ODSH
  Patients thrombocytopenic at the beginning of cycles 2 and 3: one
Cycle 1 Day 1
  Platelet count: 248
Cycle 1 Day 15
  Platelet count: 143
Cycle 2 Day 1
  Platelet count: 336
Cycle 2 Day 15
  Platelet count: 135
Cycle 3 Day 1
  Platelet count: 393
Cycle 3 Day 15
  Platelet count: 171
Cycle 4 Day 1
  Platelet count: 404
Cycle 4 Day 15
  Platelet count: 156

From patent US11229664B2, “Treatment of myelosuppression” (priority 2012, dated 2022)
